Measurements reported in patent US6313111A, “Substituted 6H-1,3,4-thiadiazine-2-amines, the use thereof as anaesthetising, cardiovascular and hypometabolic agents, and pharmaceutical composition containing them” (priority 1998, dated 2001).

Assay: rectal (body) temperature of mice measured with medicinal electrothermometer TREM-1
Format: in vivo, mice of the BALB line
Protocol: In all cases tests were carried out on mice of the BALB line of 3-4 month age. […] In the case of water-soluble compounds, aqueous solutions of the test compounds were injected intraperitoneally (i.p.), while water-insoluble compounds were introduced orally (p.o.).
Rectal temperature changes (absolute magnitues in ° C.) were measured using a medicinal electrothermometer TREM-1 (Table 1). The rate of oxygen consumption was monitored by measuring concentration of oxygen in a closed testing unit with optic-acoustic gas analyser MN 5130. The data on oxygen consumption are given in percents relative to the starting content of oxygen taken as 100%. (Table 2).
Rectal temperature of mice was followed in dynamics after 5, 15, 30, 60, 120, 180, 240, 300, and 360 minutes (Table 3). […] The same decrease in temperature at 190 mg/kg dosage was reached after 15 minutes; in 1.5 hours it reached 22-25° C. and maintained this level over the next 5 hours, that is 13-17° C. below the initial value. After one day, body temperature was restored to the value of 94-96% of initial.

[1] = i.p., 0 min, mg/kg: cpd 1 190.0, cpd 2 178.0, cpd 5 190.0, cpd 6 160.0
[2] = i.p., 30 min, mg/kg: cpd 1 190.0, cpd 2 178.0, cpd 5 190.0, cpd 6 160.0
[3] = i.p., 60 min, mg/kg: cpd 1 190.0, cpd 2 178.0, cpd 5 190.0, cpd 6 160.0
[4] = i.p., 90 min, mg/kg: cpd 1 190.0, cpd 2 178.0, cpd 6 160.0
[5] = i.p., 120 min, mg/kg: cpd 1 190.0, cpd 2 178.0, cpd 5 190.0, cpd 6 160.0
[6] = i.p., 180 min, mg/kg: cpd 1 190.0, cpd 2 178.0, cpd 5 190.0, cpd 6 160.0
[7] = i.p., 240 min, mg/kg: cpd 1 190.0, cpd 2 178.0, cpd 5 190.0, cpd 6 160.0
[8] = i.p., 300 min, mg/kg: cpd 1 190.0, cpd 2 178.0, cpd 6 160.0
[9] = p.o., 0 min, mg/kg: cpd 4 437.0, cpd 5 328.0, cpd 6 407.0, cpd 8 435.0
[10] = p.o., 30 min, mg/kg: cpd 4 437.0, cpd 5 328.0, cpd 6 407.0, cpd 8 435.0
[11] = p.o., 60 min, mg/kg: cpd 4 437.0, cpd 5 328.0, cpd 6 407.0, cpd 8 435.0
[12] = p.o., 90 min, mg/kg: cpd 4 437.0, cpd 5 328.0, cpd 6 407.0
[13] = p.o., 120 min, mg/kg: cpd 4 437.0, cpd 5 328.0, cpd 7 407.0, cpd 8 435.0
[14] = p.o., 180 min, mg/kg: cpd 4 437.0, cpd 7 407.0, cpd 8 435.0
[15] = p.o., 240 min, mg/kg: cpd 4 437.0, cpd 7 407.0, cpd 8 435.0
[16] = p.o., 300 min, mg/kg: cpd 7 407.0, cpd 8 435.0

SMILES	body temperature [1]	body temperature [2]	body temperature [3]	body temperature [4]	body temperature [5]	body temperature [6]	body temperature [7]	body temperature [8]	body temperature [9]	body temperature [10]	body temperature [11]	body temperature [12]	body temperature [13]	body temperature [14]	body temperature [15]	body temperature [16]
CS(=O)(=O)O.c1ccc(C2=NN=C(N3CCOCC3)SC2)cc1 [Compound 2, 2-Morpholino-5-phenyl-6H-1,3,4-thiadiazine, mesilate]	38.0 °C	30.1 °C	26.7 °C	25.5 °C	26.9 °C	31.0 °C	35.4 °C	35.4 °C	–	–	–	–	–	–	–	–
Br.Brc1cccc(C2=NN=C(N3CCOCC3)SC2)c1 [Compound 4, 2-Morpholino-5-(3-bromophenyl)-6H-1,3,4-thiadiazine, hydrobromide]	–	–	–	–	–	–	–	–	38.0 °C	35.9 °C	33.8 °C	33.5 °C	32.9 °C	33.1 °C	32.8 °C	–
Br.c1ccc(C2=NN=C(N3CCSCC3)SC2)cc1 [Compound 5, 2-Thiomorpholino-5-phenyl-6H-1,3,4-thiadiazine, hydrobromide]	38.0 °C	28.0 °C	27.1 °C	–	25.0 °C	23.3 °C	23.6 °C	–	38.0 °C	27.5 °C	26.0 °C	24.0 °C	24.0 °C	–	–	–
CS(=O)(=O)O.c1ccc(C2=NN=C(N3CCSCC3)SC2)cc1 [Compound 6, 2-Thiomorpholino-5-phenyl-6H-1,3,4-thiadiazine, mesilate]	37.9 °C	30.6 °C	26.9 °C	26.3 °C	25.8 °C	27.4 °C	28.9 °C	30.9 °C	37.7 °C	34.0 °C	33.4 °C	32.6 °C	–	–	–	–
Br.CCOc1ccc(C2=NN=C(N3CCSCC3)SC2)cc1 [Compound 7, 2-Thiomorpholino-5-(4-ethoxyphenyl)-6H-1,3,4-thiadiazine, hydrobromide]	–	–	–	–	–	–	–	–	–	–	–	–	33.5 °C	32.3 °C	30.6 °C	30.6 °C
Br.Brc1cccc(C2=NN=C(N3CCSCC3)SC2)c1 [Compound 8, 2-Thiomorpholino-5-(3-bromophenyl)-6H-1,3,4-thiadiazine, hydrobromide]	–	–	–	–	–	–	–	–	38.1 °C	35.2 °C	35.0 °C	–	33.4 °C	33.5 °C	32.3 °C	33.9 °C
